Laboratory results taken from patent US20250114386A1, “COMBINATION OF A GLYCOSYLATION INHIBITOR WITH ONE CAR CELL THERAPY FOR TREATING CANCER” (OSPEDALE SAN RAFFAELE S.R.L., priority 2018, published 2025).
“Also recorded” adds a separate entry of the source.

Columns and labels:
[1] = test system: T3M4 pancreatic tumour cells; assay: PHA-L staining of surface N-glycosylation after 2DG treatment; type: cell-based
Method: (§1) For dose assessment, tumour cells were exposed to 2, 4, 8, 16 or 64 mM 2DG (D8375, Sigma-Aldrich) and, after 48 h, absolute cell numbers and percentages of necrotic and proliferating cells were determined by FACS using Flow-Count Fluorospheres (BeckmanCoulter), 7-AAD and CFSE, respectively. For pharmacokinetic studies, tumour cells were treated with 4 mM 2DG and surface N-glycosylation was assessed by PHA-L staining at different time points from treatment or from wash-out to assess the kinetic of de-glycosylation and glycosylation, respectively. For safety studies, buffy coat cells were treated with 4 mM 2DG for 18 hours in the presence of IL-2 (100 IU/mL; Chiron), IL-21 (10 ng/ml; Peprotech) and IL-15 (5 ng/mL; Peprotech) before assessment of the glyco-phenotype by PHA-L staining and of cell viability by 7aad/AnnexinV staining.
(§2) The inventors used mAbs specific for human CD44v6 (e-Bioscience), CD3, CD45, NGFR, LAG3 (BD Bioscience), HLA-DR, PD1, TIM3, (Biolegend), CD57 (Miltenyi Biotec). To determine cell vitality, 7-Aminoactinomicin D (7-AAD), AnnexinV or DAPI reagents were used. For LV transduced tumour cells, GFP expression was analysed by direct fluorescence. Samples were run through a fluorescence-activated cell sorting (FACS) Canto flow cytometer (BD Biosciences) and data were analysed with the FlowJo software (Tree Star, Inc.). For branched N-glycans expression analysis, cells were incubated with biotinylated Phaseolus vulgaris Leukoagglutinin (PHA-L; Caderlane) for 1 hour according to manufacturer's instructions, washed and incubated with PE-conjugated streptavidin and analysed by flow cytometry.

[2] = test system: T3M4 pancreatic tumour cells; assay: Western blot / biotin-enrichment assay of protein de-glycosylation; type: cell-based
Method: […] De-glycosylation was assessed as molecular weight shift. For selective cell membrane protein analysis, biotinilation assay was performed according to manufacturer instructions (Thermo Scientific). Treatment of cell lysates with PNGase F (NEB, P0704) was performed as recommended by the manufacturer's instructions.

[3] = test system: T3M4 pancreatic tumour cells; assay: Lactate production assay (glycolysis); type: cell-based; settings: low doses of 2DG, 48 h
Method: Lactate production was assessed after 48 hours of 2DG treatment at the doses of 2, 4, 8, 16 or 64 mM 2DG using the Lactate-Glo assay (Promega) according to the manufacturer's instructions.

[4] = test system: T3M4 pancreatic tumour cells; assay: Tumour cell survival (7-AAD) and proliferation (CFSE) after 2DG; type: cell-based; settings: low doses of 2DG (4 mM, 48 hours)
Method: as §1

[5] = test system: T3M4 and PT45 pancreatic tumour cells; assay: In vitro co-culture killing assay with CD44v6 CAR-T cells; type: cell-based
Method: (§3) CEA or CD44v6 CAR-T cells from healthy donors were co-cultured at 1:5, 1:10, 1:25 E:T ratios with target cells in the absence of IL-7 and IL-15. T cells transduced with an irrelevant CAR (CD19 CAR T) were used as control. After 24 h or 96 h, co-cultures were analysed by FACS using Flow-Count Fluorospheres (BeckmanCoulter) and target cell killing, expressed as Elimination Index, was calculated as follows: 1−(number of residual target cells with experimental CAR-T cells/number of residual target with irrelevant CAR-T cells). In co-culture assays combining CAR-T cells with 2DG, target cells were exposed to 4 mM 2DG for 48 h before being washed, co-cultured with experimental or irrelevant CAR-T cells and analysed as above. In these experiments, the Elimination Index of 2DG alone was calculated as follows: 1−(number of target cells cultivated in medium supplemented with 2DG/number of target cells cultivated in medium alone). Co-culture of Jurkat CAR-TPR and tumour cells was performed at 1:1 E:T ratio. As control, Jurkat CAR-TPR cells were treated with either 50 ng/mL of phorbol myristate acetate (PMA) or 1 g/mL of Ionomycin or a combination of the two. Upregulation of fluorescence was assessed after 24 hours

[6] = test system: healthy peripheral blood mononuclear cells (PBMCs); assay: Safety study on buffy coat cells (PHA-L staining, 7aad/AnnexinV); type: cell-based; settings: 4 mM 2DG, 18 hours
Method: as §1

[7] = test system: human primary keratinocytes; assay: Primary keratinocytes: western blot and co-culture with CD44v6 CAR-T cells; type: cell-based
Method: as §3, with “As control, Jurkat CAR-TPR cells were treated with either 50 ng/mL of phorbol myristate acetate (PMA) or 1 g/mL of Ionomycin or a combination of the two.” left out
Tumour cells or healthy primary keratinocytes were treated with either medium alone or supplemented with 4 mM 2DG for 48 h, lysed and subjected to SDS polyacrylamide gel electrophoresys. De-glycosylation was assessed as molecular weight shift. […]

[8] = test system: T3M4 pancreatic adenocarcinoma xenograft; assay: In vivo efficacy, pancreatic adenocarcinoma xenograft mouse model; parameters: species or system NSG mice
Method: All experiments were approved by the Institutional Animal Care and Use Committee (IACUC) of San Raffaele University Hospital and Scientific Institute and by the Italian Governmental Health Institute (Rome, Italy). NSG mice (NOD.Cg-Prkdcscid Il2rgtm1Wj1) were obtained from the Jackson Laboratories and kept in a specific-pathogen-free (SPF) facility within individually ventilated cages. […] At day […] and 7 from tumour engraftment, when the tumour burden was high, mice were injected intraperitoneally (i.p.) with 500 mg/kg 2DG. At day 7 mice were infused intravenously (i.v.) with 5×10^5 of either CD44v6 or CD19 CAR T cells as control. In another set of experiments, mice were treated with 500 mg/kg 2DG at day 2 and 3 and received 10×10^5 of either CD44v6 or CD19 CAR T cells at day 3, when the tumour burden was low. Tumour growth was monitored by bioluminescence assay using the QUANTI-Luc detection reagent (InvivoGen) and expressed as relative light units (RLUs), according to the manufacturer instructions. Mice were sacrificed when RLUs were >10^6.

[9] = test system: PT45, BxPC3 and T3M4 pancreatic tumour cells; assay: In vitro co-culture killing assay with CEA CAR-T cells; type: cell-based
Method: as §3

[10] = test system: 5637, H1975 and PC9 cells; assay: In vitro co-culture killing assay, other tumour types; type: cell-based; settings: 4 mM 2DG 48 hours before co-culture
Method: as §3

[11] = test system: T3M4 pancreatic tumour cells; assay: Surface expression of beta-1 integrin and CD44v6 by FACS; type: cell-based; settings: 4 mM 2DG, 48 hours
Method: as §2

[12] = 2DG alone or combined with chemotherapy and radiotherapy; cited from earlier work
[13] = test system: sulfation (PAPS formation); settings: chlorate usually 10-30 mM; cited from earlier work
[14] = T3M4, tunicamycin 100 ng/ml, 48 h

## O=CC[C@@H](O)[C@H](O)[C@H](O)CO [2DG, 2-Deoxy-D-glucose]
[1]; 4 mM 2DG up to 48 hours, then wash-out
  duration of de-glycosylation after washing out 2DG: 24 h
[1]; 4 mM 2DG, 48 hours
  inhibition of N-glycosylation (binding to PHA-L): reduced binding to PHA-L
[1]; 4 mM 2DG, PHA-L staining
  time at which de-glycosylation is detectable: ≤ 5 h
[2]; 2DG 4 mM or 16 mM, 48 hours, total cell lysates
  inhibition of N-glycosylation (western blot, beta-1 integrin): molecular-weight shift of beta-1 integrin
[2]; biotin-enrichment western blot
  de-glycosylated forms of beta-1 integrin and CD44v6 among surface proteins: clearly detected among surface proteins
[3]
  inhibition of glycolysis (lactate production): unable to inhibit glycolysis
[4]
  tumour cell proliferation (CFSE dilution): no impact
  tumour cell viability (7AADpos cells): no impact on tumour cell viability
[5]; PT45 and T3M4
  nature of the combined effect of 2DG and CD44v6 CAR-T cells: synergic
[5]; PT45 and T3M4, 4 mM 2DG 48 h
  individual antitumor activity of 2DG alone: lacking
[5]; PT45 and T3M4, 4 mM 2DG 48 h before co-culture
  elimination of tumour cells by CD44v6 CAR-T cells after 2DG pre-treatment: significantly increasing their elimination
[6]
  PBMCs glycosylation (PHA-L staining): failed to interfere with PBMCs glycosylation
  viability of CD3+ T cells, CD19+ B cells, CD14+ monocytes and CD15+ granulocytes: did not impact on the viability
[7]; 2DG 48 hours before co-culture
  increase of keratinocyte elimination by CD44v6 CAR-T cells: failed
[7]; 2DG 48 hours, same dose as for tumour cells
  keratinocyte glycosylation: failed to inhibit keratinocyte glycosylation
[8]; at sacrifice, mice that received 2DG vs not
  frequency of tumour-infiltrating CD44v6 CAR-T cells expressing exhaustion and senescence markers: significantly lower frequency of cells expressing exhaustion and senescence markers
[8]; high tumor burden
  antitumor effect of 2DG alone: unable to mediate any antitumor effect alone
[8]; high tumor burden, at 7d, p<0,05
  less tumor with 2DG in mice receiving CAR-T cells: 5 fold
[8]; high tumour burden (HTB) setting, 500 mg/kg 2DG i.p., low CAR-T cell dose
  antitumor benefit of 2DG in mice receiving CD44v6 CAR-T cells: significantly benefited from 2DG administration
[9]; 24 hours after stimulation
  cytokine release (IFNγ) by CEA CAR-T cells with 2DG-treated tumour cells: increased
[9]; CEAneg PT45, 4 mM 2DG 48 hours
  recognition of CEAneg tumour cells by CEA CAR-T cells after 2DG pre-treatment: did not increase recognition
[9]; CEApos BxPC3 and T3M4, 4 mM 2DG 48 hours
  elimination of CEApos tumour cells by CEA CAR-T cells after 2DG pre-treatment: significantly improved the elimination
[9]; T3M4, 4 mM 2DG
  CEA CAR-T cell activation (CD69, Jurkat TPR) with 2DG-treated tumour cells: increased CAR-T cell activation
[10]
  elimination of highly glycosylated tumours by CD44v6 CAR-T cells after 2DG: drastically increase the elimination
[11]
  surface expression levels of beta-1 integrin and CD44v6: maintained
[12]
  safety and tolerability in patients: safe and well tolerated; also recorded: good tolerability

## [O-][Cl+2]([O-])O [chlorate]
[13]
  inhibition of sulfation: > 90%

## tunicamycin
[5]; [14]
  CD44v6 CAR-T cell activation (CD69) after tunicamycin treatment of tumour cells: confirmed
  elimination of tumour cells by CD44v6 CAR-T cells after tunicamycin treatment: confirmed
